Laboratory results from PMC12040169 (PLOS Biology, 2025).

Assay: in vitro
Conditions: human, hela cells, % viability

Point of comparison: Cc1cccc(=O)n1CCCn1cc(C2CCCNC2)nn1 (centres unmarked) [CBK306946], viability at 28.5 h, 10 µM 91%. Against it:
- COc1c(C)cc(-c2ncnc(C)c2C)cc1C [CBK306884] — lower, 67.6%
- Cc1nc(C)c(C(=O)NCc2cccnc2N(C)C2CCCCC2)s1 [CBK306885] — higher, 95%
- CN1CC2(CCCN(Cc3nnc(-c4cccnc4)o3)C2)OC1=O (centres unmarked) [CBK306888] — higher, 110%
- Cc1cc(-c2cn3cc(C(=O)N4CCCCC4)nc3c(=O)n2C)c(C)o1 [CBK306890] — lower, 86.6%
- c1cnc(NCc2cc3n(n2)CCN(CC2CCCCO2)C3)cn1 (centres unmarked) [CBK306891] — higher, 96.4%
- CCc1nc(-c2ccc(N(C)C)nc2)n(C)n1 [CBK306897] — lower, 90.6%
- CCOc1ccc(-c2ccnc(NCCNC(C)=O)n2)cc1C(=O)O [CBK306898] — lower, 85.1%
- CN(CCO)c1ccc(C(=O)N2CCC(N3CCOCC3)CC2)cn1 [CBK306899] — higher, 97%
- CCn1cc(CN(CCOC)C(=O)c2cc3c(Cl)cccc3[nH]2)cn1 [CBK306903] — higher, 91.5%
- COc1ccc2[nH]c(CN3CCCC(c4nc(C)n[nH]4)C3)c(C)c2c1 (centres unmarked) [CBK306904] — higher, 101%
- Cn1cc(CCCNC(=O)c2cccc(CN3CCCCCC3)c2)cn1 [CBK306906] — higher, 93.7%
- O=c1cc(N2CCCCC2)cnn1CCCn1cccn1 [CBK306907] — lower, 90.1%
- Nc1nc(C2CC(N)C2)cc(N2CCC(Oc3ccccc3F)CC2)n1 (centres unmarked) [CBK306909] — lower, 85.5%
- CCc1nc(N)nc(N2CCCC3(CN(C)C(=O)O3)C2)c1C (centres unmarked) [CBK306914] — lower, 86.9%
- Cc1cnc2c(Cl)c(C(=O)NCC3(CN4CCOCC4)CC3)nn2c1 [CBK306918] — higher, 98.8%
- COc1ccc(CN2CCOC(C(=O)O)C2)cc1Cn1cncn1 (centres unmarked) [CBK306919] — higher, 120%
- Cc1cc(C)n(CC2(CNC(=O)C(c3ccccc3F)N(C)C)CC2)n1 (centres unmarked) [CBK306920] — higher, 97.2%
- CC(Cc1ccsc1)NS(=O)(=O)c1cccc(C(=O)N2CCCC2)c1 (centres unmarked) [CBK306923] — lower, 85.8%
- COc1ccnc(N2CCN(Cc3cncn3C3CCCCC3)CC2)n1 [CBK306925] — higher, 98.1%
- COc1ccccc1CCC(=O)NCc1cnc(SC)n1C [CBK306926] — lower, 85.9%
- O=C(NCC(CO)Cc1ccsc1)N1CCN(c2ccncc2)CC1 (centres unmarked) [CBK306929] — higher, 96.7%
- Cn1nccc1C(O)c1cc2n(n1)CCCN(C(=O)Cc1cccs1)C2 (centres unmarked) [CBK306930] — higher, 104%
- Cc1nc(CCN2CCN(c3ccc4nccn4n3)CC2)cs1 [CBK306932] — higher, 95.6%
- CCc1ocnc1C(=O)NC1CCN(c2ncccc2C#N)CC1 [CBK306935] — higher, 93%
- Cn1ncc(N2CCN(C(=O)CCCOc3ccccc3)CC2)cc1=O [CBK306937] — lower, 84.2%
- CSc1nnc(CC2CCN(C(=O)c3ccc(C)cc3F)CC2)n1C [CBK306939] — higher, 105%
- CCCCSc1nc(N)cc(N2CCN3C(=O)CN(C)C(=O)C3C2)n1 (centres unmarked) [CBK306940] — lower, 82.4%
- CCCc1nnc2sc(C3CCC(=O)N(C(C)C)C3)nn12 (centres unmarked) [CBK306942] — higher, 108%
- Cc1cccc(C(C)NC(=O)C2(Cn3ccnc3)CC2)n1 (centres unmarked) [CBK306944] — lower, 86.4%
- CC(Cn1cccn1)NC(=O)N1CCN(Cc2ccc(F)cc2)CC1 (centres unmarked) [CBK306948] — lower, 88.9%
- CCn1cc(CN(C)Cc2csc(C)n2)c2cc(C(=O)O)ncc21 [CBK306950] — higher, 116%
- CCn1ncc(CN2CCCC(CCC(=O)N3CCN(C)CC3)C2)c1C (centres unmarked) [CBK306951] — lower, 80.4%
- Cc1nc(CCCn2cnc3ncccc3c2=O)sc1C [CBK306953] — higher, 106%
- CC(Cc1cnccn1)NC(=O)Nc1cc(N2CCOCC2)ccc1Cl (centres unmarked) [CBK306954] — higher, 111%
- COC(CNC(=O)Cn1nnnc1CN1CCC(C)CC1)c1cccs1 (centres unmarked) [CBK306958] — higher, 109%
- COc1ccccc1CN(Cc1cccnc1)C(=O)CCN1CCCO1 [CBK306959] — higher, 98.1%
- Cc1cc(=O)c2ccccc2n1CC(=O)N(C)CC1CCCCO1 (centres unmarked) [CBK306960] — higher, 94.4%
- CN(Cc1cnn(C)c1)c1nccc(N2CCN[C@H]3CS(=O)(=O)C[C@H]32)n1 [CBK306964] — higher, 100%
- CN(CC1CCCCO1)C(=O)c1ccc(-c2ccccc2C(N)=O)cc1 (centres unmarked) [CBK306967] — higher, 92.6%
- CC(=O)N1CCc2nc(C)nc(N(C)Cc3cnn(C(C)C)c3)c2CC1 [CBK306968] — lower, 83.1%
- Cc1nc(O)cc(C2CCCN(C(=O)c3scc4c3CCCC4)C2)n1 (centres unmarked) [CBK306969] — lower, 88.5%
- O=C(NC1CCN(Cc2cc(F)cc(F)c2)CC1)c1cn2ccsc2n1 [CBK306970] — lower, 80%
- COc1ccccc1CN(Cc1cccnc1)C(=O)c1cnc(C)cn1 [CBK306972] — higher, 95.1%
- CCCCSc1nc(N)cc(N2CCC(N3CCOC3=O)CC2)n1 [CBK306974] — lower, 82.1%
- CC(C)c1cc(C(=O)NC2CCN(c3ncccc3C#N)CC2)n(C)n1 [CBK306975] — lower, 87.1%
- COc1ccc(C(Nc2ccnc(OC)c2C#N)[C@H]2C[C@@H](O)C2)cn1 (some centres unmarked) [CBK306980] — lower, 84.6%
- COCCNS(=O)(=O)c1cccc2c1CN(C(=O)CC1CCCC1)CC2 [CBK306982] — higher, 101%
- COCCN(Cc1ccncc1)C(=O)c1cc(C(C)C)n2ncnc2n1 [CBK306983] — higher, 97.4%
- Cc1ccc2nc(CNC(=O)N(C)CCc3c(C)n[nH]c3C)cn2c1 [CBK306984] — lower, 81.1%
- Cn1c(CN2CCN(c3ccc(C#N)cc3)CC2)nnc1[C@H]1C[C@@H](N)C1 [CBK306985] — higher, 109%
- CN1CCCCCC1c1nc(-c2c[nH]c3ccccc23)nn1CCO (centres unmarked) [CBK306988] — higher, 96%
- Cc1cccc(=O)n1CCCNc1cc(C2CCOC2)ncn1 (centres unmarked) [CBK306992] — lower, 84.4%
- CCCCSc1nc(N)cc(N2CCCC(N3CCCC3=O)C2)n1 (centres unmarked) [CBK306995] — higher, 95.5%
- CSc1ncc(CNC(=O)Nc2ccc3c(c2)CCC3)n1C [CBK306996] — higher, 107%
- Cc1ccn(CCNC(=O)C2CCC(=O)N(CCc3ccccn3)C2)n1 (centres unmarked) [CBK306998] — higher, 93.5%
- CCCCC(c1cccnc1)N(C)C(=O)c1cc(C)c(CC)n(C)c1=O (centres unmarked) [CBK306999] — lower, 88.5%
- CCCCSc1nc(N)cc(N2CCC3(CCNC(=O)CC3)CC2)n1 [CBK307001] — higher, 98.2%
- CC(C)NC(=O)NC1CCCc2nc(N3CCC(CO)CC3)ncc21 (centres unmarked) [CBK307002] — lower, 83.3%
- CSCCNC(=O)c1coc(COc2ccc3sc(C)nc3c2)n1 [CBK307004] — higher, 99.3%
- c1cnc(NCc2cc3n(n2)CCN(CC2CCCC2)C3)nc1 [CBK307007] — lower, 87.9%
- CN(CCc1cnn(C)c1)C(=O)NCCCN1CCCC1=O [CBK307008] — higher, 91.1%
- CC(=O)Nc1cccc(C(=O)N2CCC(OCc3ccccn3)CC2)c1 [CBK307009] — higher, 114%
- CCn1cc(CN(C)Cc2ccon2)c2cc(C(=O)O)ncc21 [CBK307017] — lower, 84.7%
- CCN(C)CC(=O)N1CCC(Oc2cc(C)ccc2F)(C(=O)O)CC1 [CBK307020] — higher, 105%
- Cc1nc(N)nc(N[C@@H]2CCOC[C@H]2OCCN(C)C)c1Cl [CBK307024] — lower, 88.7%
- Cc1cnc(NCC2(CO)CCOCC2)nc1N(C)C [CBK307026] — higher, 104%
- CCn1c(CC2CCN(c3nc(C)cc(C)c3C#N)CC2)nn(C)c1=O [CBK307027] — higher, 111%
- COCCn1c(CO)nnc1[C@H]1C[C@@H](NC(=O)c2cc(F)ccc2F)C1 [CBK307032] — lower, 85.1%
- Cn1cc(NC(=O)N2CCCN(Cc3ccccn3)CC2)nn1 [CBK307034] — lower, 86.8%
- Cc1nc(N2CCCCC2)ncc1C(=O)NCCc1cc[nH]n1 [CBK307035] — higher, 113%
- CCCN1CC(NS(=O)(=O)c2cc(OC)c(C)cc2OC)CC1=O (centres unmarked) [CBK307036] — lower, 75.4%
- N[C@H]1C[C@H](c2nnc(Cn3ncc(N4CCCC4)cc3=O)n2C2CC2)C1 [CBK307039] — higher, 107%
- CCOC(=O)N1CCN(C2CCCN(Cc3cnc(N(C)C)s3)C2)CC1 (centres unmarked) [CBK307041] — higher, 93.7%
- Nc1nonc1-n1cc(CN2CCCCC2)nn1 [CBK307044] — higher, 97.1%
- COCCn1cnnc1C(C)NC(=O)Cn1cc2ccccc2n1 (centres unmarked) [CBK307047] — higher, 92.1%
- CC(C)Cc1cc(CNC(=O)Nc2cc(-c3cccnc3)nn2C)no1 [CBK307048] — lower, 84.9%
- CC(C)CC(NC(=O)Cc1cccc(O)c1)c1ncnn1C (centres unmarked) [CBK307050] — higher, 105%
- CC(CN1CCOCC1)NS(=O)(=O)c1cccc(C(=O)N2CCCC2)c1 (centres unmarked) [CBK307053] — higher, 107%
- Cc1nc2ncc(-c3ccccc3C(=O)N(C(C)C)C(C)C)cn2n1 [CBK307054] — lower, 84.1%
- COCCN(Cc1cnn(C)c1)C(=O)c1ccc2oc(C)cc2c1 [CBK307059] — higher, 96.6%
- CN(CC1CCCC1)c1nccc(N2CCN[C@H]3CS(=O)(=O)C[C@H]32)n1 [CBK307060] — lower, 83.9%
- COCCn1c(CO)nnc1[C@H]1C[C@@H](NC(=O)c2ccc(C)s2)C1 [CBK307063] — lower, 73.9%
- Cc1nc(C(C)NC(=O)CCc2cnn(C)c2)c(C)s1 (centres unmarked) [CBK307064] — higher, 92.6%
- CCNc1ncc(C(=O)NC(CCn2ccnc2)c2ccccc2)cn1 (centres unmarked) [CBK307066] — higher, 110%
- Cc1nc2cc(OCc3nc(C(=O)NCC(O)CO)co3)ccc2s1 (centres unmarked) [CBK307067] — higher, 102%
- Cc1ccsc1C(=O)N1CCC(n2cc(C(C)(C)O)nn2)CC1 [CBK307069] — higher, 110%
- COc1cc(OC)c(CN2CC3(C)CC2CC(C)(C)C3)cc1Br (centres unmarked) [CBK307074] — lower, 86.4%
- O=C(c1ccc2c(c1)ncn2CCO)N1CCC(c2ccccc2F)C1 (centres unmarked) [CBK307075] — lower, 88.5%
- CSc1nccc(N2CCC(NCCCn3ccnn3)CC2)n1 [CBK307076] — higher, 92.7%
- CCc1ncc(C(=O)N(Cc2ccccn2)CC2CCCO2)cn1 (centres unmarked) [CBK307077] — higher, 95.1%
- CCc1c(C)cc(C(=O)N(C)C(CC)c2ccccn2)c(=O)n1C (centres unmarked) [CBK307078] — higher, 95.6%
